Measurements published in publication PMC10307885, “A Phase 1/2 trial of SRA737 (a Chk1 inhibitor) administered orally in patients with advanced cancer” (British Journal of Cancer, 2023).

Key:
[1] = system: patients with advanced solid tumours; assay: Phase 1/2 dose-escalation/expansion study: safety, TEAEs (NCI CTCAE v4.03), DLT, MTD, RP2D; type: in vivo
From the text: The objectives of this first-in-human, Phase 1/2, open-label, dose-escalation study of SRA737 as a single agent were to establish the safety profile, define the maximum tolerated dose (MTD) and the recommended Phase 2 dose (RP2D) and schedule, and to evaluate preliminary efficacy in prospectively selected genetically defined patients enrolled in indication-specific expansion cohorts. Secondary objectives included defining the pharmacokinetic (PK) profile of SRA737.
The study used an accelerated titration design in dose escalation beginning with single subject dose-level cohorts. Doubling of the SRA737 dose was permitted in the subsequent cohort if a dose level was determined to be safe by the cohort review committee consisting of the lead investigator, study investigators representing the site(s) currently enrolling patients, and representatives of the study sponsor. In the event of any SRA737-related adverse event Grade 2 or greater toxicity during Cycle 1, the cohort was to be expanded to 3 to 6 subjects. Thereafter the study followed a rolling 6 design wherein once the first subject completed the 7-day observation period following the first dose of SRA737, subsequent subjects in that cohort started treatment. […] Enrolment of expansion cohorts at the highest dose level determined to be safe and tolerable was initiated prior to the completion of dose escalation and determination of MTD or RP2D.
A single dose of SRA737 was given at one visit on Day −7 to Day −4 (prior to the start of Cycle 1) for PK assessments. SRA737 was then administered orally on a continuous daily dosing schedule in 28-day cycles. An accelerated titration design was used with single-patient dose-escalation cohorts starting with 20 mg SRA737 administered once daily (QD) in the first cohort, with dose doubling in subsequent single-patient cohorts. If a patient had SRA737-related Grade 2 toxicity in a dose level cohort during Cycle 1, that cohort was expanded to 3 to 6 patients, and subsequent cohorts followed a rolling six design.
Patients were assessed for DLT from the first SRA737 dose (Day −7 to Day −4) until the end of Cycle 1 (up to 35 days).
Expansion cohorts including up to 20 patients with one of the 6 specified indication-specific tumour types, were treated at SRA737 doses selected by the cohort review committee based on all available safety and PK data; expansion doses were at or below the maximum tolerated dose (MTD) from the dose-escalation phase. Patients could continue treatment until disease progression or discontinuation from study due to unacceptable toxicity, investigator/sponsor decision, or withdrawal of consent.
Safety assessments including adverse events, laboratory parameters, electrocardiograms (ECGs), and echocardiograms were conducted throughout treatment and until 30 days after the last study treatment or initiation of new anticancer treatment.
The Safety Evaluable population included all patients who received at least one dose of SRA737.
The DLT window is defined from the first dose (Day -7 to Day -4) until the end of Cycle 1 (up to 35 days).
A DLT is defined as any highly probably or probably SRA737-related event of: […]

[2] = Preliminary in vitro solubility studies of SRA737 citrate drug product; type: physicochemical; details: over the physiological range
[3] = 1300 mg QD cohort, three patients enrolled
[4] = 49 patients treated at SRA737 doses >800 mg QD
[5] = irrespective of SRA737 dose level, any grade

Compound: N#Cc1cnc(Nc2cc(NC[C@H]3CNCCO3)c(C(F)(F)F)cn2)cn1 [SRA737, (R)-5-((4-((morpholin-2-ylmethyl)amino)-5-(trifluoromethyl)pyridin-2-yl)amino)pyr azine-2-carbonitrile]
- Dose-limiting toxicity (DLT) ([1]; 500 mg BID, one patient, four evaluable for DLT): Grade 4 thrombocytopenia
- Grade 1–2 TEAEs of diarrhoea ([1]; 800 mg SRA737 dose level): 68 % of patients
- Grade 1–2 TEAEs of nausea ([1]; 800 mg SRA737 dose level): 78 % of patients
- Grade 1–2 TEAEs of vomiting ([1]; 800 mg SRA737 dose level): 50 % of patients
- patients with Grade 3 diarrhoea (GI toxicity above Grade 2) ([1]; 800 mg dose level): one
- Dose-limiting toxicities (DLTs) ([1]; 1000 mg QD dose-escalation cohort (or any lower-dose cohorts)): No DLTs
- patients requiring dose reduction to 600 mg due to GI intolerability ([1]; 1000 mg QD, 10 evaluable patients): 3 patients
- Grade 1–2 TEAEs of diarrhoea ([1]; 1000 mg SRA737 dose level): 72 % of patients
- Grade 1–2 TEAEs of nausea ([1]; 1000 mg SRA737 dose level): 65 % of patients
- Grade 1–2 TEAEs of vomiting ([1]; 1000 mg SRA737 dose level): 63 % of patients
- patients with Grade 3 diarrhoea (GI toxicity above Grade 2) ([1]; 1000 mg dose level): 1 patient
- patients with both Grade 3 nausea and vomiting ([1]; 1000 mg dose level): single patient
- patients with dose-limiting GI intolerability (Grade 1–2 nausea, vomiting, and/or diarrhoea) [1, 3]: 2 patients
- patients with dose-limiting Grade 3 neutropenia [1, 3]: 1 patient
- discontinued due to SRA737-related TEAEs ([1]; 16 patients of 107): 15.0%
- Adverse events leading to treatment discontinuation ([1]; 34 patients of 107): 31.8%
- Grade 3 or higher TEAE related to SRA737: fatigue [1, 4]: 4%
- Grade 3 or higher TEAE related to SRA737: neutropenia [1, 4]: 10%
- Grade 3 or higher TEAE related to SRA737: rash/rash maculopapular combined [1, 4]: 6%
- Any SRA737-related Grade ≥3 treatment-emergent adverse event (TEAE) ([1]; Overall (N = 107)): 33 (30.8) n (%)
- Any SRA737-related treatment-emergent adverse event (TEAE), any grade ([1]; Overall (N = 107)): 98 (91.6) n (%)
- SRA737-related TEAE of Grade 3 or higher: Aspartate aminotransferase increased ([1]; Overall (N = 107)): 2 (1.9) n (%)
- SRA737-related TEAE of Grade 3 or higher: Diarrhoea ([1]; Overall (N = 107)): 2 (1.9) n (%)
- SRA737-related TEAE of Grade 3 or higher: Dyspnoea ([1]; Overall (N = 107)): 2 (1.9) n (%)
- SRA737-related TEAE of Grade 3 or higher: Fatigue ([1]; Overall (N = 107)): 2 (1.9) n (%)
- SRA737-related TEAE of Grade 3 or higher: Lymphocyte count decreased ([1]; Overall (N = 107)): 3 (2.8) n (%)
- SRA737-related TEAE of Grade 3 or higher: Neutropenia ([1]; Overall (N = 107)): 9 (8.4) n (%)
- SRA737-related TEAE of Grade 3 or higher: Rash ([1]; Overall (N = 107)): 3 (2.8) n (%)
- SRA737-related TEAE of Grade 3 or higher: Rash maculopapular ([1]; Overall (N = 107)): 3 (2.8) n (%)
- SRA737-related TEAE of Grade 3 or higher: Thrombocytopenia ([1]; Overall (N = 107)): 3 (2.8) n (%)
- SRA737-related TEAE of any grade: Anaemia ([1]; Overall (N = 107)): 16 (15.0) n (%)
- SRA737-related TEAE of any grade: Decreased Appetite ([1]; Overall (N = 107)): 19 (17.8) n (%)
- SRA737-related TEAE of any grade: Diarrhoea ([1]; Overall (N = 107)): 67 (62.6) n (%)
- SRA737-related TEAE of any grade: Fatigue ([1]; Overall (N = 107)): 41 (38.3) n (%)
- SRA737-related TEAE of any grade: Nausea ([1]; Overall (N = 107)): 64 (59.8) n (%)
- SRA737-related TEAE of any grade: Neutropenia ([1]; Overall (N = 107)): 17 (15.9) n (%)
- SRA737-related TEAE of any grade: Vomiting ([1]; Overall (N = 107)): 49 (45.8) n (%)
- Any SRA737-related Grade ≥3 treatment-emergent adverse event (TEAE) ([1]; SRA737 dose > 800 mg (N = 49)): 19 (38.8) n (%)
- Any SRA737-related treatment-emergent adverse event (TEAE), any grade ([1]; SRA737 dose > 800 mg (N = 49)): 47 (95.9) n (%)
- SRA737-related TEAE of Grade 3 or higher: Aspartate aminotransferase increased ([1]; SRA737 dose > 800 mg (N = 49)): 0 n (%)
- SRA737-related TEAE of Grade 3 or higher: Diarrhoea ([1]; SRA737 dose > 800 mg (N = 49)): 1 (2.0) n (%)
- SRA737-related TEAE of Grade 3 or higher: Dyspnoea ([1]; SRA737 dose > 800 mg (N = 49)): 0 n (%)
- SRA737-related TEAE of Grade 3 or higher: Fatigue ([1]; SRA737 dose > 800 mg (N = 49)): 2 (4.1) n (%)
- SRA737-related TEAE of Grade 3 or higher: Lymphocyte count decreased ([1]; SRA737 dose > 800 mg (N = 49)): 0 n (%)
- SRA737-related TEAE of Grade 3 or higher: Neutropenia ([1]; SRA737 dose > 800 mg (N = 49)): 5 (10.2) n (%)
- SRA737-related TEAE of Grade 3 or higher: Rash ([1]; SRA737 dose > 800 mg (N = 49)): 1 (2.0) n (%)
- SRA737-related TEAE of Grade 3 or higher: Rash maculopapular ([1]; SRA737 dose > 800 mg (N = 49)): 2 (4.1) n (%)
- SRA737-related TEAE of Grade 3 or higher: Thrombocytopenia ([1]; SRA737 dose > 800 mg (N = 49)): 1 (2.0) n (%)
- SRA737-related TEAE of any grade: Anaemia ([1]; SRA737 dose > 800 mg (N = 49)): 11 (22.4) n (%)
- SRA737-related TEAE of any grade: Decreased Appetite ([1]; SRA737 dose > 800 mg (N = 49)): 7 (14.3) n (%)
- SRA737-related TEAE of any grade: Diarrhoea ([1]; SRA737 dose > 800 mg (N = 49)): 34 (69.4) n (%)
- SRA737-related TEAE of any grade: Fatigue ([1]; SRA737 dose > 800 mg (N = 49)): 27 (55.1) n (%)
- SRA737-related TEAE of any grade: Nausea ([1]; SRA737 dose > 800 mg (N = 49)): 32 (65.3) n (%)
- SRA737-related TEAE of any grade: Neutropenia ([1]; SRA737 dose > 800 mg (N = 49)): 7 (14.3) n (%)
- SRA737-related TEAE of any grade: Vomiting ([1]; SRA737 dose > 800 mg (N = 49)): 28 (57.1) n (%)
- Any SRA737-related Grade ≥3 treatment-emergent adverse event (TEAE) ([1]; SRA737 dose ≤ 800 mg (N = 58)): 14 (24.1) n (%)
- Any SRA737-related treatment-emergent adverse event (TEAE), any grade ([1]; SRA737 dose ≤ 800 mg (N = 58)): 51 (87.9) n (%)
- SRA737-related TEAE of Grade 3 or higher: Aspartate aminotransferase increased ([1]; SRA737 dose ≤ 800 mg (N = 58)): 2 (3.4) n (%)
- SRA737-related TEAE of Grade 3 or higher: Diarrhoea ([1]; SRA737 dose ≤ 800 mg (N = 58)): 1 (1.7) n (%)
- SRA737-related TEAE of Grade 3 or higher: Dyspnoea ([1]; SRA737 dose ≤ 800 mg (N = 58)): 2 (3.4) n (%)
- SRA737-related TEAE of Grade 3 or higher: Fatigue ([1]; SRA737 dose ≤ 800 mg (N = 58)): 0 n (%)
- SRA737-related TEAE of Grade 3 or higher: Lymphocyte count decreased ([1]; SRA737 dose ≤ 800 mg (N = 58)): 3 (5.2) n (%)
- SRA737-related TEAE of Grade 3 or higher: Neutropenia ([1]; SRA737 dose ≤ 800 mg (N = 58)): 4 (6.9) n (%)
- SRA737-related TEAE of Grade 3 or higher: Rash ([1]; SRA737 dose ≤ 800 mg (N = 58)): 2 (3.4) n (%)
- SRA737-related TEAE of Grade 3 or higher: Rash maculopapular ([1]; SRA737 dose ≤ 800 mg (N = 58)): 1 (1.7) n (%)
- SRA737-related TEAE of Grade 3 or higher: Thrombocytopenia ([1]; SRA737 dose ≤ 800 mg (N = 58)): 2 (3.4) n (%)
- SRA737-related TEAE of any grade: Anaemia ([1]; SRA737 dose ≤ 800 mg (N = 58)): 5 (8.6) n (%)
- SRA737-related TEAE of any grade: Decreased Appetite ([1]; SRA737 dose ≤ 800 mg (N = 58)): 12 (20.7) n (%)
- SRA737-related TEAE of any grade: Diarrhoea ([1]; SRA737 dose ≤ 800 mg (N = 58)): 33 (56.9) n (%)
- SRA737-related TEAE of any grade: Fatigue ([1]; SRA737 dose ≤ 800 mg (N = 58)): 14 (24.1) n (%)
- SRA737-related TEAE of any grade: Nausea ([1]; SRA737 dose ≤ 800 mg (N = 58)): 32 (55.2) n (%)
- SRA737-related TEAE of any grade: Neutropenia ([1]; SRA737 dose ≤ 800 mg (N = 58)): 10 (17.2) n (%)
- SRA737-related TEAE of any grade: Vomiting ([1]; SRA737 dose ≤ 800 mg (N = 58)): 21 (36.2) n (%)
- Grade 3 or higher neutropenia rate ([1]; current study, overall): 8%
- Dose-limiting toxicity, events included ([1]; daily doses of 1000 and 1300 mg QD): gastrointestinal events, neutropenia and thrombocytopenia
- patients who tolerated the dose but required anti-emetic medication and/or night-time dosing ([1]; human, in vivo): 7 patients
- Fatal adverse events attributed to SRA737 ([1]; in vivo): none
- Fatal adverse events reported ([1]; in vivo): ten
- TEAE attributed to SRA737: anaemia [1, 5]: 15%
- TEAE attributed to SRA737: decreased appetite [1, 5]: 18%
- TEAE attributed to SRA737: diarrhoea [1, 5]: 63%
- TEAE attributed to SRA737: fatigue [1, 5]: 38%
- TEAE attributed to SRA737: nausea [1, 5]: 60%
- TEAE attributed to SRA737: neutropenia [1, 5]: 16%
- TEAE attributed to SRA737: vomiting [1, 5]: 46%
- recommended Phase 2 dose (RP2D) ([1]; oral monotherapy): 800 mg QD
- maximum tolerated dose (MTD) ([1]; oral monotherapy, continuous daily dosing, 28-day cycles): 1000 mg QD
- GI events (diarrhoea, nausea, vomiting) reported at Grade 3 or higher severity ([1]; patients treated at 800 mg QD or higher): less than 5 % of patients
- pH-dependent solubility [2]: minimal to moderate pH-dependent solubility
